Data set [1] can be described thus: Hepatic microsomal intrinsic clearance assay. It is filed as in vitro ADME. As to conditions: liver microsomes 0.5 mg/mL, 1 μM, NADPH, 1 hour at 37° C., LLOQ 0.36 L/h/kg; for CLint scaled at 1 μM: pooled liver microsomes, pH 7.4. The protocol:
Compounds (final concentration 1 μM, 1% organic) of the invention were incubated for 1 hour at 37° C., with shaking, in phosphate buffer (pH 7.4) containing commercially sourced pooled liver microsomes (final concentration 0.5 mg/mL). […] At designated time points (0, 5, 10, 20, 30 and 60 minutes) ice-cold acetonitrile containing internal standard (300 μL) was added to an incubation well to stop the reaction then mixed and centrifuged (3220 g for 20 minutes at 4° C.). Supernatant was diluted (1:4) with deionized water then analyzed by LC-MS/MS.

The nature of data set [2]: Hepatocyte intrinsic clearance assay. The conditions noted are these: pooled donor, cryopreserved hepatocytes, pH 7.4; human hepatocytes 1×10^6/mL; 0.05 μM; 2 h at 37° C. It is filed as in vitro ADME, Human. On the procedure:
Test compounds (final concentration 0.05 μM, 0.05% organic) were incubated for 2 h at 37° C., with shaking, in supplemented Leibovitz L-15 media (pH 7.4) containing commercially sourced, pooled donor, cryopreserved hepatocytes (final concentration 1×10^6 hepatocytes/mL). The CLint reactions (350 μL) were initiated by addition of test compound. Aliquots (25 μL) were taken at 1, 5, 10, 15, 30, 60, 90 and 120 minutes and then protein crashed with ice-cold acetonitrile containing internal standard (150 μL) then centrifuged (1960 g for 20 minutes at 4° C.). Supernatant was diluted (1:4) with deionized water then analyzed by liquid chromatography (LC)-tandem mass spectrometry (MS/MS).

The nature of data set [3]: Fraction unbound in rat plasma and brain homogenate by equilibrium dialysis. As to conditions: 1 μM, equilibrium dialysis 5 h at 37° C.; for fubrain (% free): rat brain homogenate; for fuplasma (% free): rat plasma. It counts as in vitro ADME, male Sprague-Dawley rat. The protocol:
The fraction of unbound compound in male Sprague-Dawley rat plasma (fuplasma) and brain homogenate (fubrain) were determined by equilibrium dialysis using 96-well HTD-dialysis plates with dialysis membranes (molecular weight cut off 12-14 KDa). One side of the HTD-dialysis plate was loaded with matrix (plasma or brain homogenate) and the other side with buffer (100 mM sodium phosphate buffer, pH 7.4). Test compounds were dissolved in DMSO then spiked (5 μL of 0.2 mM) into blank (995 μL) plasma or diluted brain homogenate (1:4 ratio in phosphate buffer) giving a final nominal concentration 1 μM (≤0.5% DMSO). The matrices were loaded into respective chambers and equilibrated against phosphate buffer for 5 h at 37° C. (in a humidified air incubator with 5% CO2 with shaking). Samples from both chambers (buffer and plasma or brain homogenate) were aliquoted to fresh 96-well polypropylene plates then matrix matched using an equal volume of opposite blank matrix before extraction with cold solvent (3 volumes acetonitrile) containing an appropriate bioanalytical internal standard. After centrifugation (20 min, 3200 g, 4° C.) the supernatants were diluted with appropriate volumes of water and compound concentrations were quantified by LC/MS-MS against matrix matched calibration standards. The fuplasma and fubrain were calculated according to equation 4 below.
[formula] Where [F] is the compound concentration on the buffer (receiver) side of the membrane; [T] is the compound concentration on the plasma or brain (donor) side of the membrane; D is the matrix dilution factor which is determined as D=4 for brain matrix and D=1 for plasma matrix in these assays.
(Equilibrium dialysis compares concentrations on both sides of a semipermeable membrane.)

Data set [4] can be described thus: Rat brain disposition after oral gavage. The conditions noted are these: male, Sprague-Dawley, oral 5 mg/kg, mean ± stdev. It counts as in vivo, male Sprague-Dawley rats. The protocol: Brain disposition was evaluated in male Sprague-Dawley rats (n=3, standard body weight). Briefly, test compound was formulated as a simple suspension (0.5% HPMC in water) then administered by oral gavage (10 mg/kg, 10 mL/kg or 5 mg/kg, 10 mL/kg). At the designated time point (0.5 or 1 h post dose) rats were sacrificed and terminal blood and brain samples taken. Isolated plasma and brain homogenates were extracted by standard protein precipitation in acetonitrile, containing internal standard. Diluted extracts were analyzed by liquid-chromatography coupled with tandem mass spectrometry detection (LC-MS/MS) using a bioanalytical method. Concentrations of test compound in plasma and brain were quantified against matrix matched calibration standards. The total plasma and brain concentration time data are presented in Table 4 alongside the calculated brain Kp (total brain concentration:total plasma concentration ratio).
The total brain-to-plasma partition coefficient (brain Kp) is given by the ratio of the total brain concentration and total plasma concentration of the compound according to the equation below: […]
Based on the measured rat fuplasma and fubrain values and the brain Kp the unbound brain-to-plasma partition coefficient (brain Kp,uu for each compound was calculated. The Kp,uu parameter describes the extent of brain penetration for each compound, i.e. the parameter gives a direct quantitative description of how the blood-brain barrier (BBB) handles the compounds regarding passive transport and active influx/efflux. The brain Kp,uu is given by the equation below: […]

Setting [5] is: brain, n=3, read-out: Total brain concentration.
The mark [6] stands for this setting: plasma, n=3, read-out: Total plasma concentration.

Read-outs that look alike come from different tables or passages of the source. Where only a bound is given, the exact number is not on record here.

In data set [1], `[2H]C([2H])([2H])c1c2c(nn1-c1ccc(C)nc1C)OCCCn1nc(Cl)c3cnc(nc31)N2` [Example 25, 8-Chloro-2-(2,6-dimethylpyridin-3-yl)-3-(methyl-d3)-2,4,12,13-tetrahydro-11H-5,7-(azenometheno)dipyrazolo[3,4-b:5′,1′-g][1]oxa[4,6,8]triazacycloundecine] showed a CLint scaled at 1 μM below 6 mL/min/kg. This compound gave a CLint scaled at 0.05 μM in data set [2] of 19.8 mL/min/kg.

Compound `Cc1ncc(F)cc1-n1nc2c(c1C)Nc1ncc3c(Cl)nn(c3n1)CCCO2` [Example 10, 8-Chloro-2-(5-fluoro-2-methylpyridin-3-yl)-3-methyl-2,4,12,13-tetrahydro-11H-5,7-(azenometheno)dipyrazolo[3,4-b:5′,1′-g][1]oxa[4,6,8]triazacycloundecine] showed a CLint scaled at 1 μM in data set [1] of 20 mL/min/kg. Further, in data set [3], the “fubrain (% free)” value is 9.3 % free and the “fuplasma (% free)” value turned out to be 22.7 % free. The compound further had a CLint scaled at 0.05 μM in data set [2] of 5.5 mL/min/kg. In data set [4] (brain, n=3), this compound displayed a Kp at 1 h of 2.2 ± 0.3 and a Kp uu at 1 h of 0.89 ± 0.14. Moreover, the concentration at 1 h in data set [4] (setting [5]) came out at 524 ± 79 ng/g. For the same compound, the concentration at 1 h in data set [4] (setting [6]) was determined as 246 ± 61 ng/mL.

The compound `COc1ncc(F)cc1-n1nc2c(c1C)Nc1ncc3c(Cl)nn(c3n1)CCCO2` [Example 6, 8-Chloro-2-(5-fluoro-2-methoxypyridin-3-yl)-3-methyl-2,4,12,13-tetrahydro-11H-5,7-(azenometheno)dipyrazolo[3,4-b:5′,1′-g][1]oxa[4,6,8]triazacycloundecine] had a CLint scaled at 1 μM in data set [1] of 21 mL/min/kg. In data set [3], the “fubrain (% free)” value came out at 3.7 % free and the “fuplasma (% free)” value is 8.9 % free. Also, the CLint scaled at 0.05 μM in data set [2] was 14.3 mL/min/kg. In data set [4] (brain, n=3), this compound registered a Kp at 1 h of 3 ± 0.06 and a Kp uu at 1 h of 1.22 ± 0.03. For the same compound, the concentration at 1 h in data set [4] (setting [5]) is 205 ± 21 ng/g. Besides, the concentration at 1 h in data set [4] (setting [6]) came to 69 ± 7 ng/mL.

As to `Cc1ccc(-n2nc3c(c2C)Nc2ncc4c(Cl)nn(c4n2)CCCO3)c(C)n1` [Example 9, 8-Chloro-2-(2,6-dimethylpyridin-3-yl)-3-methyl-2,4,12,13-tetrahydro-11H-5,7-(azenometheno)dipyrazolo[3,4-b:5′,1′-g][1]oxa[4,6,8]triazacycloundecine], the “Hepatic microsomal CLint (L/h/kg)” value in data set [1] was “BQL**”. In data set [3], the “fubrain (% free)” value is listed as 7.4 % free and the “fuplasma (% free)” value turned out to be 10.2 % free. This compound showed a CLint scaled at 0.05 μM in data set [2] of 16.2 mL/min/kg. Besides, in data set [4] (brain, n=3), the Kp at 1 h came to 1.4 ± 0.2 and the Kp uu at 1 h stood at 1 ± 0.12. The concentration at 1 h in data set [4] (setting [5]) was 906 ± 87 ng/g. In addition, the concentration at 1 h in data set [4] (setting [6]) stood at 664 ± 47 ng/mL.

`Cc1cnc(C)c(-n2nc3c(c2C)Nc2ncc4c(Cl)nn(c4n2)CCCO3)c1` [Example 11, 8-Chloro-2-(2,5-dimethylpyridin-3-yl)-3-methyl-2,4,12,13-tetrahydro-11H-5,7-(azenometheno)dipyrazolo[3,4-b:5′,1′-g][1]oxa[4,6,8]triazacycloundecine] gave a CLint scaled at 1 μM in data set [1] of 12.3 mL/min/kg. In addition, in data set [3], the “fubrain (% free)” value turned out to be 5.3 % free and the “fuplasma (% free)” value is recorded as 11.7 % free. The compound also gave a CLint scaled at 0.05 μM in data set [2] below 4 mL/min/kg. In data set [4] (brain, n=3), this compound gave a Kp at 1 h of 1.1 ± 0.2 and a Kp uu at 1 h of 0.51 ± 0.07. For the same compound, in data set [4] (setting [5]), the concentration at 1 h worked out at 649 ± 99 ng/g. For the same compound, the concentration at 1 h in data set [4] (setting [6]) was found to be 586 ± 82 ng/mL.

Consider `Cc1ncccc1-n1nc2c(c1C)Nc1ncc3c(Cl)nn(c3n1)CCCO2` [Example 3, 8-Chloro-3-methyl-2-(2-methylpyridin-3-yl)-2,4,12,13-tetrahydro-11H-5,7-(azenometheno)dipyrazolo[3,4-b:5′,1′-g][1]oxa[4,6,8]triazacycloundecine], for which the CLint scaled at 1 μM in data set [1] is 7.17 mL/min/kg. Further, in data set [3], the “fubrain (% free)” value came out at 10.4 % free and the “fuplasma (% free)” value worked out at 22.6 % free. In data set [2], this compound showed a CLint scaled at 0.05 μM of 6 mL/min/kg. In data set [4] (brain, 0.5 h, n=3), this compound showed a Kp at 0.5 h of 1.1 ± 0.1 and a Kp uu at 0.5 h of 0.52 ± 0.06. Moreover, the concentration at 0.5 h in data set [4] (brain, 0.5 h, n=3, read-out: Total brain concentration) came out at 414 ± 97 ng/g. In addition, the concentration at 0.5 h in data set [4] (plasma, 0.5 h, n=3, read-out: Total plasma concentration) turned out to be 362 ± 38 ng/mL.

`[2H]C([2H])([2H])c1c2c(nn1-c1cc(F)cnc1OC)OCCCn1nc(Cl)c3cnc(nc31)N2` (single isomer, unassigned) [Example 29, 8-Chloro-2-(5-fluoro-2-methoxypyridin-3-yl)-3-(methyl-d3)-2,4,12,13-tetrahydro-11H-5,7-(azenometheno)dipyrazolo[3,4-b:5′,1′-g][1]oxa[4,6,8]triazacycloundecine] gave an intrinsic metabolic clearance (CLint scaled) at 1 μM in data set [1] of 21.3 mL/min/kg. The compound also showed an intrinsic clearance (CLint scaled) at 0.05 μM in data set [2] of 15.5 mL/min/kg.

`[2H]C([2H])([2H])Oc1ncc(F)cc1-n1nc2c(c1C)Nc1ncc3c(Cl)nn(c3n1)CCCO2` (single isomer, unassigned) [Example 23, 8-Chloro-2-(5-fluoro-2-(methoxy-d3)pyridin-3-yl)-3-methyl-2,4,12,13-tetrahydro-11H-5,7-(azenometheno)dipyrazolo[3,4-b:5′,1′-g][1]oxa[4,6,8]triazacycloundecine] had a CLint scaled at 1 μM in data set [1] of 23.8 mL/min/kg. The intrinsic clearance (CLint scaled) at 0.05 μM in data set [2] is 16.2 mL/min/kg.

As usually defined, the CLint scaled is the capacity of the preparation to metabolise the compound, expressed as a volume cleared per time. A higher CLint scaled goes with faster metabolism.

These data come from patent publication US11958865B1, “Leucine-rich repeat kinase 2 (LRRK2) inhibitors” (H. Lundbeck A/S, priority 2022, dated 2024).
